Measured values taken from patent US20260345517A1, “DOSAGE REGIMENS FOR TREATING STARGARDT DISEASE” (Alkeus Pharmaceuticals, Inc., priority 2024, published 2026).

What was measured:
[1] = Open-label multiple dose pharmacokinetic study in healthy volunteers (percentage of deuterated vitamin A in plasma, LC/MS); assay type: in vivo, human; details: fasting
Procedure: Study Design: This was an open-label, non-randomized, multiple dose study in healthy volunteers aged 21 to 70 years of age (inclusion criteria). Subjects who met all entrance criteria at screening were invited to receive the study medication. There were six treatment arms: 2 mg/day, 3.5 mg/day, 5 mg/day, 7 mg/day, 10 mg/day and 14 mg/day gildeuretinol acetate. For the four lower dose groups, the dose regimen was one capsule per day, orally, to be taken at home, preferably in the evening unless a different time was preferred by the subject. For the two highest doses, the dose regimen was two capsules per day, one in the morning and one in the evening, although subjects with a preference to take both capsules at once were offered to do so. After taking the 1st dose at the study site, subjects were invited to return two and four weeks after starting the treatment.
The clinical staff made periodic calls to monitor adverse events and ensure subject compliance. In addition, a text message was sent daily to remind subjects to take their medication. Subjects were instructed to avoid foods that contain large amounts of vitamin A (such as liver-based products), including supplements containing vitamin A, and to report their vitamin A intake by answering a daily text message diary. Fruits and vegetables were permitted without restriction.
Deuterated retinol (gildeuretinol) (“D3”) and non-deuterated retinol (“Do”) and other vitamin A metabolites were measured to calculate the percentage of deuterated vitamin A in plasma. For all treatment groups, plasma samples were collected at baseline, 14±1 days (“2 weeks”) and 28±1 days (“4 weeks”) after initiation of treatment. Blood samples were usually collected following at least 10 hours of fasting (including last gildeuretinol acetate intake), preferably in the morning. For the 7 mg/day and the 14 mg/day groups only, after the first and last dose, blood samples were collected every 4 hours for 24 hours. A liquid chromatography/mass spectrometry assay was used to measure the metabolite levels.
Table 2 provides % D3 Retinol (gildeuretinol, i.e. the percentage of deuterated retinol (gildeuretinol) over total retinol (as deuterated+non-deuterated) in plasma measured 12-24 hours following gildeuretinol acetate intake.
Pharmacokinetic Results (integrated levels over 24 hours post dosing): total vitamin A in plasma, both deuterated (gildeuretinol) and non-deuterated (retinol), was measured every 4 hours following administration of 7 mg or 14 mg at the first dose, and following administration of the 28th dose (4 weeks of daily treatment). The area under the curve (AUC) was calculated and the % deuterated % D3 of total vitamin A (as retinol and gildeuretinol) was computed as an average over 24 hours.

[2] = TEASE-3: plasma gildeuretinol (replacement of plasma vitamin A); assay type: in vivo, human; details: 14 mg daily, after the first two months, all three participants
Procedure: The tolerability and effects of gildeuretinol acetate in Stargardt Disease (Clinical trial group 3 also known as TEASE-3) study was an open-label, multicenter, case control study designed to evaluate the efficacy and safety of gildeuretinol acetate on the progression of Stargardt disease in asymptomatic individuals. The trial was conducted at multiple sites in the United States.
To assess the safety and efficacy of gildeuretinol acetate in preventing vision loss in asymptomatic individuals, gildeuretinol acetate 14 mg capsules was administered to individuals showing early signs of retinal damage while maintaining approximately 20/20 vision and no subjective loss of vision. […] Based on the above family history and clinical observations, the individuals were likely to develop retinal lesions, loss of photoreceptors, drops in retinal sensitivity, loss of visual acuity, indicating the onset of symptoms, i.e. a progression to the symptomatic phase, including vision loss within two years, mirroring the progression observed in their older siblings.
Patients received gildeuretinol acetate 14 mg capsules, to be taken orally once daily. Trial visits occurred every 6 months approximately following screening and treatment start visits.

% gildeuretinol over retinol + gildeuretinol in plasma ([1]; 2 mg/day, after 2 weeks of treatment): 27%
% gildeuretinol over retinol + gildeuretinol in plasma ([1]; 2 mg/day, after 4 weeks of treatment): 31%
% gildeuretinol over retinol + gildeuretinol in plasma ([1]; 3.5 mg/day, after 2 weeks of treatment): 39%
% gildeuretinol over retinol + gildeuretinol in plasma ([1]; 3.5 mg/day, after 4 weeks of treatment): 46%
% gildeuretinol over retinol + gildeuretinol in plasma ([1]; 5 mg/day, after 2 weeks of treatment): 53%
% gildeuretinol over retinol + gildeuretinol in plasma ([1]; 5 mg/day, after 4 weeks of treatment): 51%
% gildeuretinol over retinol + gildeuretinol in plasma ([1]; 7 mg/day, 24 hours post 1st dose): 27%
% gildeuretinol over retinol + gildeuretinol in plasma ([1]; 7 mg/day, after 2 weeks of treatment): 55%
% gildeuretinol over retinol + gildeuretinol in plasma ([1]; 7 mg/day, after 4 weeks of treatment): 63%
% gildeuretinol over retinol + gildeuretinol in plasma ([1]; 10 mg/day, after 2 weeks of treatment): 66%
% gildeuretinol over retinol + gildeuretinol in plasma ([1]; 10 mg/day, after 4 weeks of treatment): 72%
% gildeuretinol over retinol + gildeuretinol in plasma ([1]; 14 mg/day, 24 hours post 1st dose): 41%
% gildeuretinol over retinol + gildeuretinol in plasma ([1]; 14 mg/day, after 2 weeks of treatment): 64%
% gildeuretinol over retinol + gildeuretinol in plasma ([1]; 14 mg/day, after 4 weeks of treatment): 79%
replacement of plasma vitamin A (retinol + gildeuretinol) with gildeuretinol [2]: 80%
SMILES: CC1=C(/C=C/C(C)=C/C=C/C(C)=C/CO)C(C)(C)CCC1 [gildeuretinol, C20D3-retinol]
